Experimental data reported in patent publication US20110200531A1, “TREATMENT AND DIAGNOSIS OF CENTRAL NERVOUS SYSTEM DISORDERS” (THE REGENTS OF THE UNIVERSITY OF CALIFORNIA, priority 2009, published 2011).
Entries after “also recorded” stand apart in the source; their conditions may differ.

What was measured:
Tg2576 mice = experiment: Aβ-related vaccinations in Tg2576 mice: retinal and brain pathology; format: in vivo; details: for Aβ deposits in hippocampal and neocortical areas of brain (6E10) / Aβ immunoreactivity in retinal microvessels / retinal amyloid angiopathy score: 10-month vaccination; for Aβ immunoreactivity in retinal microvessels / retinal amyloid angiopathy score: Aβ and vWF double-labeled microvessels, vs sham-immunized Tg2576
Experimental: The Aβ oligomer antigen was prepared from Aβ1-40 based on our previously published work (Kayed et al., 2003). Briefly, lyophilized Aβ1-40 peptides were resuspended in 50% acetonitrile in water and relyophilized. Soluble prefibrillar oligomers were prepared by dissolving 1.0 mg of peptide in 400 μl of hexafluoroisopropanol for 10˜20 minutes at room temperature. The resultant seedless solution (100 μl) was added to 900 μl of MilliQ H2O in a siliconized Eppendorf tube. After 10˜20 minutes incubation at room temperature, the samples were centrifuged for 15 minutes at 14,000×g, and the supernatant fraction (pH 2.8˜3.5) was transferred to a new siliconized tube and subjected to a gentle stream of N2 for 5˜10 minutes to evaporate the hexafluoroisopropanol. […] Oligomers were validated by atomic force microscopy, electron microscopy, and size exclusion chromatography as described previously (Kayed et al., 2003). The Aβ fibril was prepared from Aβ1-42, because it is more fibrillogenic as compared with Aβ1-40. Aβ1-40, predominantly in fibrillary form, was previously studied in a randomized, double-blind, placebo-controlled phase 2a clinical trial, study AN1792(QS-21)-201 by Gilman and colleagues (Gilman et al., 2005). Fibrils were formed by dissolving the lyophilized Aβ1-42 in 50% hexafluoroisopropanol and stirred with closed caps for 7 days. Solution is stirred again for 2 days in capped tubes with 20-gauge needle holes on the top to allow the hexafluoroisopropanol to evaporate. This whole preparation was done in a fume food to accelerate evaporation and minimize falling of dust or other foreign material. Fibrils were precipitated by centrifugation for 15 minutes at 14,000 rpm and washed in PBS, and resuspended at 2 mg/ml. For the prefibrillar oligomer antigen, Aβ oligomer (AO) molecular mimic was prepared by conjugating Aβ1-40 via a C-terminal thioester to 5-nm colloidal gold as described previously (Kayed and Glabe, 2006). […] Immunization schemes were conducted in a similar way as described previously (Zhou et al., 2005). […] Administration of an equivalent volume of PBS with the adjuvant but without any peptide antigen to both wild-type and transgenic mice was used as control. All experimental procedures were performed under protocols approved by the University of California Irvine Institutional Animal Care and Use Committee. Tissue Preparation: Mice were deeply anesthetized with an overdose of Nembutal (100 mg/kg, i.p.) and perfused transcardially with ice-cold PBS. The eyes were directly collected and fixed overnight with 4% paraformaldehyde in PBS (pH 7.4, 4° C.) following brain removal. Fixed eyes were stored in PBS containing 20% sucrose and 0.05% sodium azide (NaN3) at 4° C. until use. Following removal of lenses with forceps fixed eyes were cryomolded with OCT. Cross-retinal cryostat sections (12 μm) were thaw-mounted onto “Superfrost plus” glass slides (Fisher, Tustin, Calif.), air-dried for 30 minutes and stored at 4° C. before staining. […] Immunohistochemistry and Quantification: […] The immunoreactivity of APP, hyperphosphorylated tau (AT8), and Aβ in selected sections was also detected using the avidin-biotin complex method, followed by staining with DAB and brief counterstaining with hematoxylin. […] The results were evaluated by either fluorescence or conventional microscopy with a Leica DM microscope. Images were recorded using a Spot II charge-coupled device camera with equal exposure times for all different groups of tissues. […]

5×FAD mouse brains = experiment: Abeta immunoreactivity (6E10) in 5×FAD mouse brains; format: in vivo, mice; details: chow containing 300 mg/Kg from postnatal day 61 for 4 months
Excerpt: Animal tissues were perfused with 1×PBS followed by overnight fixation in 4% paraformaldehyde in cold room. Vibrotome sections (˜50 μm thick) were immunostained with 6E10 antibody, which recognizes all forms of Abeta, and visualized by fluorescence microscopy.

[1] = test system: SH-SY5Y human neuroblastoma cells; experiment: Survival of SH-SY5Y cells following exposure to hydrogen peroxide; format: cell-based; details: for cell survival following exposure to hydrogen peroxide: SH-SY5Y, 25-50 μM, hydrogen peroxide 10-100 μM; for oxidative stress measured by production of malondialdehyde (MDA) and hydrogen peroxide: cultured cells (cell type not specified); for difference in protective efficacy between the two differently-sourced TMP compounds: statistical analysis, TMP-N vs TMP-S
5×FAD mouse retinas = experiment: Retinal ganglion cell (RGC) quantification in 5×FAD mouse retinas; format: in vivo, mice; details: chow containing 300 mg/Kg from postnatal day 61 for 4 months
Experimental: FIG. 24: Preservation of retinal ganglion cells (RGC) in 5×FAD mice by TMP (see Section 6.3.1). Numbers of RGC of wild-type, control (Vehicle) and TMP-treated mice were quantified.
5×FAD mice and wild type littermates (control) were fed with normal chow (Vehicle) or chow containing 300 mg/Kg of either TMP-N or TMP-S (see Section 6.3.1) from postnatal day 61 for exactly 4 months until the day of analysis. RGC cells were quantified in cross retinal sections as described in Liu et al., American Journal of Pathology, 2009.

5×FAD mice = experiment: Novel object recognition task in 5×FAD mice; format: in vivo; details: chow containing 300 mg/Kg from postnatal day 61 for 4 months; N=8-12
Experimental: FIG. 22: Improvement of memory in 5×FAD mice by synthetic form of TMP treatments. Novel object recognition task was performed and depicted as FIG. 21.
Wild type littermates were used for comparison. All the mice were fed with normal chow (Vehicle) or containing 300 mg/Kg either TMP-N or TMP-S from postnatal day 61 for exactly 4 months until the day for the completion of behavioral assessments.

mouse primary neurons = experiment: Survival of mouse primary neurons following exposure to hydrogen peroxide; format: cell-based; details: 25-50 μM, hydrogen peroxide 10-100 μM
3×Tg-AD mice = experiment: Learning and memory in 3×Tg AD mice (novel object recognition, Morris water maze); format: in vivo; details: 16-month old 3×Tg-AD females
Experimental: Both 16-month old 3×Tg-AD and background-matched wild type (WT) mice (females) were fed with TMPcontaining or nutrients matched control for 60 days as described in FIG. 3. (A) On day 61, all the mice were tested for object recognition as previously described. Briefly, mice (n=14 for each group) were habituated to a 60×30 cm container for 5 min. Two identical objects were placed in the bottom of the cage as mirror images of each other. The animal was trained for 5 min followed by a 5 min retention interval in the home cage. Then one of the objects in the test container was replaced with a novel object. During the 3-min probe trial, the mouse was placed in the cage and time spent investigating both objects was measured. A recognition index (R1) score is depicted as: (TimeN (in seconds for novel object)/TimeTotal (in seconds for both old and novel objects))×100. (B-D) Starting on day 62, all the mice were trained for 9 days on the Morris water maze (MWM) exactly as described for the behavior testing. […] (C) MWMprobe trial for number of platform location crosses, and (D) MWM probe trial for time spent in the target quadrant. As shown by the p values, (*) indicates significant improvement by TMP treatments with respect to the corresponding controls.
FIG. 21A-D: Improvement of learning and memory in aged 3×Tg AD mice by TMP treatment. Novel object recognition task was performed. A recognition index (R1) score is depicted as: [TimeN (in seconds for novel object)/TimeTotal (in seconds for both old and novel objects)]×100. B-D Starting on day 62, all the mice were trained for 9 days on the Morris water maze (MWM) for the behavior testing. […] (C) MWM probe trial for number of platform location crosses, and (D) MWM probe trial for time spent in the target quadrant. As shown by the p values, (*) indicates significant improvement by the compound treatments with respect to the corresponding controls.
TMP improves pathology in brains of 3×Tg-AD mice and results in increased memory and learning (See FIGS. 3, 4, and 10). In these mice, the earliest pathological hallmark is the accumulation of intraneuronal Aβ in the hippocampus, cortex and amygdala in 4 month old 3×Tg-AD homozygous mice. […] Between 4-6 months of age 3×Tg-AD homozygous mice develop diffuse amyloid plaques in the neocortex. At 6 months the retention deficits are associated with significant impairments in spatial learning of the Morris Water Maze task. […] Brain and retina pathology was evaluated by immunohistochemistry with specific antibodies and learning and memory performance were scored using the Novel Object Recognition Task and using Morris Water Maze trials.
The ability of TMP-N to improve learning and memory in 3×Tg AD mice was assessed using novel object recognition task. […]

Compound	Aβ deposits in hippocampal and neocortical areas of brain (6E10) (Tg2576 mice)	Aβ immunoreactivity in retinal microvessels / retinal amyloid angiopathy score (Tg2576 mice)	Abeta immunoreactivity / deposits in brain (6E10) (5×FAD mouse brains)	cell survival following exposure to hydrogen peroxide [1]	oxidative stress measured by production of malondialdehyde (MDA) and hydrogen peroxide [1]	difference in protective efficacy between the two differently-sourced TMP compounds [1]	number of retinal ganglion cells (RGC) (5×FAD mouse retinas)	memory performance, novel object recognition task (5×FAD mice)	cell survival following exposure to hydrogen peroxide (mouse primary neurons)	Morris water maze (MWM) acquisition performance (3×Tg-AD mice; TMP diet 60 days, trained 9 days from day 62)	learning and memory (object recognition, MWM probe trials) (3×Tg-AD mice; TMP-containing diet)	number of Aβ plaques / Aβ deposits in retina (Tg2576 mice; 100 μg s.c. with incomplete Freund's adjuvant once a month for 10 months, vs PBS adjuvant)
AF: Aβ fibril prepared from Aβ1-42; vaccine immunogen	notably less Aβ deposits	even greater Aβ immunoreactivity										
Cc1nc(C)c(C)nc1C [TMP-N, tetramethylpyrazine]			Abeta deposits were decreased in both cortical and hippocampal regions	significantly increased cell survival	remarkable reduction of oxidative stress	no significant difference	slightly preserved RGC; also recorded: slight protective effect on RGC	some negative effects; also recorded: slight negative effect on the memory performance	significantly increased cell survival	significantly improved the performance of 3×Tg-AD mice	significantly restored learning and memory	
AO: Aβ oligomer molecular mimic prepared by conjugating Aβ1-40 via a C-terminal thioester to 5-nm colloidal gold; vaccine immunogen	notably less Aβ deposits	even greater Aβ immunoreactivity										significant reduction in the number of Aβ plaques
Cc1nc(C)c(C)nc1C [TMP-S, tetramethylpyrazine]				significantly increased cell survival	remarkable reduction of oxidative stress	no significant difference	significantly preserved RGC; also recorded: significantly increased number of RGC	significantly improved memory performance; also recorded: significantly improved this performance	significantly increased cell survival			
